{"source": "patent EP2796042A1", "about": "“Compounds promoting plant growth” (Albert-Ludwigs-Universität Freiburg, priority 2013, dated 2014)", "key": {"[1]": {"system": "Arabidopsis seedlings (Wild type Col 0)", "experiment": "Safener activity on seedlings grown in presence of inhibitory concentrations of auxin (IAA)", "type": "in vivo, Arabidopsis thaliana", "settings": "for root growth in the presence of inhibitory concentrations of IAA: 100 µM compound, 2 µM IAA", "experimental": "It was tested whether benzoic acid derivatives can counteract the activity of natural auxins (IAA) (Figure 17 and Figure 18). The experiments were carried out as described for Figure 10."}, "[2]": {"system": "ADCS-RNAi seedlings", "experiment": "Rescue of root growth arrest after conditional down regulation of GAT-ADCS (estradiol-inducible RNAi)", "type": "in vivo, Arabidopsis thaliana", "settings": "EST-induced; 50µM compound for 6 days (Fig. 9C)"}, "[3]": {"system": "Arabidopsis thaliana", "experiment": "Root growth and development of seedlings on AM medium with exogenous compound", "type": "in vivo", "settings": "for SULF inhibition on plant development: 100µM compound with 100µM sulfanilamide (Fig. 10F), 6 day-old; for plant-root waving: 100µM supplemented media (Fig. 10B)", "experimental": "To get more insights into the pABA role on plant development, plants were grown in presence of pABA. […] Arabidopsis root waving occurs when plants are grown at the surface of an agar plate that is slightly tilted."}, "[4]": {"system": "Lex::UGT75B", "experiment": "Rescue of root defects of estradiol-induced Lex::UGT75B plants", "type": "in vivo, Arabidopsis thaliana", "excerpt": "Plant growth relies on auxin gradients maintained by series of auxin influx carriers of the AUXIN RESISTANT 1/ Like AUX1 (AUX/LAX) family, efflux facilitators such as ABCB/multi-drug resistance/P-glycoprotein (ABCB/MDR/PGP), and PIN-FORMED (PIN) proteins. PIN-proteins subcellular localization is highly dynamic and influenced by various internal and external signals, thereby directing and redirecting the intercellular fluxes of auxin[25]. […] During plant response to gravity, auxin transport through AtPIN2 plays a crucial role and pin2 mutants are unable to establish lateral auxin gradient after gravistimulation and therefore are agravitropic."}, "[5]": {"system": "Arabidopsis thaliana", "experiment": "Plants growing in agar plates supplemented with pABA", "type": "in vivo", "settings": "200 µM pABA in agar plates, vs untreated plants", "excerpt": "(§1) They were 3 replicates for each experiment."}, "[6]": {"system": "Lycopersicum esculentum", "experiment": "Plants growing in agar plates supplemented with pABA", "type": "in vivo", "settings": "200 µM pABA in agar plates, vs untreated plants", "excerpt": "as §1"}, "[7]": {"system": "Arabidopsis seedlings", "experiment": "Activity of benzoic acid derivatives on root growth", "type": "in vivo, Arabidopsis thaliana", "settings": "AM supplemented with 100 µM compound"}, "[8]": {"system": "Arabidopsis seedlings", "experiment": "Root response to gravity after rotating agar plates by 135°", "type": "in vivo, Arabidopsis thaliana", "settings": "plates rotated to 135° for 3h (Fig. 10G)"}, "[9]": {"settings": "cited from earlier work"}, "[10]": {"system": "Zea mays", "experiment": "Plants growing in soil and watered with a solution containing pABA", "type": "in vivo", "settings": "watered with 1 mM pABA; n=10", "experimental": "Maize seeds were germinated in Petri® dishes containing deionized-water-humidified Whatman® paper. Germinations of equal size were transferred in pots (one per pot) containing a mixture of soil and vermiculite and watered with tap water for 30 days. Then watering was stopped for 48h until soil looked dried at the surface of the pot."}, "[11]": {"system": "Poplar explants", "experiment": "Induction of adventitious roots on poplar explants", "type": "in vivo", "settings": "200 µM pABA", "excerpt": "Since pABA can stimulate adventitious development in Arabidopsis, we tested whether pABA could also promotes adventitious development on poplar, a commercially important tree."}, "[12]": {"system": "Arabidopsis thaliana", "experiment": "Plants growing in soil and watered or sprayed with a solution of pABA", "type": "in vivo", "experimental": "Arabidopsis plants were grown from seeds in pots in a mixture of soil and vermiculite and watered with tap water for 15 days. Then watering was stopped for 48h until soil looked dried at the surface of the pot. A total of 4 trails containing 51 pots each were divided into 2 parts. […] The other trails were sprayed with solutions described above. […] Plants growing in soil and watered or sprayed with a solution containing pABA"}, "[13]": {"system": "adcs-2", "experiment": "Homozygous adcs2 rescue experiment with pABA", "type": "in vivo, Arabidopsis thaliana", "settings": "opened siliques transplanted on medium supplemented with pABA", "excerpt": "adcs T-DNA mutants (SALK_095283 and SALK_034215) were in Arabidopsis thaliana (L.) Heynh., ecotype Columbia (Col-0) background and ugt75b (AY027263) in Landsberg erecta (Ler)."}}}
{"smiles": "Nc1nc2c(c(=O)[nH]1)N(C=O)C(CNc1ccc(C(=O)N[C@@H](CCC(=O)O)C(=O)O)cc1)CN2", "note": "(stereo partly drawn) [5-FTHF, 5-formyl-tetrahydrofolate, reference compound]", "values": [{"measurement": "root growth in the presence of inhibitory concentrations of IAA", "setting": "[1]", "value": "fully restored root growth"}, {"measurement": "rescue of arrested roots", "setting": "[2]", "value": "could be rescued"}, {"measurement": "SULF inhibition on plant development", "setting": "[3]", "value": "reverted"}, {"measurement": "plant-root waving", "setting": "[3]", "value": "not"}, {"measurement": "phenocopy of the activity of pABA", "setting": "[3]; applied at similar concentrations as pABA", "value": "did not phenocopy the activity of pABA"}, {"measurement": "root growth recovery upon strong UGT75B induction", "setting": "[4]; 20µM EST, 400µM compound (Fig. 14)", "value": "very poorly"}, {"measurement": "effect of supplementation on growth defects of β-estradiol-induced UGT75B plants", "setting": "[4]; weak induction 0.1µM EST, 200µM 5-FTHF (Fig. 13E)", "value": "had no effect"}]}
{"smiles": "CCN(CC)CCOC(=O)c1ccc(N)cc1", "note": "[Procaine, procaine, reference compound]", "values": [{"measurement": "root growth in the presence of inhibitory concentrations of IAA", "setting": "[1]", "value": "fully restored root growth"}]}
{"smiles": "Nc1cccc(C(=O)O)c1", "note": "[mABA, 3-aminobenzoic acid]", "values": [{"measurement": "root growth in the presence of inhibitory concentrations of IAA", "setting": "[1]", "value": "fully restored root growth"}]}
{"smiles": "Nc1ccc(C(=O)O)cc1", "note": "[pABA, 4-aminobenzoic acid]", "values": [{"measurement": "growth-inhibitory effects of IAA", "setting": "[1]; 1 µM IAA + 100µM pABA", "value": "could antagonize"}, {"measurement": "root growth in the presence of inhibitory concentrations of IAA", "setting": "[1]", "value": "fully restored root growth"}, {"measurement": "rescue of arrested roots", "setting": "[2]", "value": "could be rescued"}, {"measurement": "adventitious roots", "setting": "[5]; after 10 days", "value": "more adventitious roots"}, {"measurement": "lateral roots", "setting": "[5]; after 10 days", "value": "more lateral roots"}, {"measurement": "root hairs", "setting": "[5]; six days after germination", "value": "longer root hairs"}, {"measurement": "adventitious roots", "setting": "[6]; after 10 days", "value": "more adventitious roots"}, {"measurement": "lateral roots", "setting": "[6]; after 10 days", "value": "more lateral roots"}, {"measurement": "root hairs", "setting": "[6]; six days after germination", "value": "longer root hairs"}, {"measurement": "root growth-promoting activity", "setting": "[7]", "value": "significant root growth-promoting activity"}, {"measurement": "gravitropic response of Arabidopsis primary root", "setting": "[8]", "value": "increases gravitropic response"}, {"measurement": "pKa value", "setting": "[9]", "value": "about 4.9"}, {"measurement": "SULF inhibition on plant development", "setting": "[3]", "value": "reverted"}, {"measurement": "plant-root waving", "setting": "[3]", "value": "suppressed"}, {"measurement": "development of LR and AR", "setting": "[3]; 100µM supplemented media (Fig. 10C)", "value": "induces development of LR and AR"}, {"measurement": "root hair length", "setting": "[3]; pABA treatment (Fig. 10D-E)", "value": "increases root hair length"}, {"measurement": "Concentrations that inhibited root growth and promoted lateral and adventitious roots development as well as root hair growth", "setting": "[3]; wild type seedlings on AM, aerial part not affected", "value": "greater than 50 µM"}, {"measurement": "Number of leaves", "setting": "[10]", "value": "6.58 ±0.14"}, {"measurement": "Root weight", "setting": "[10]", "value": "7.85 ± 0.49", "unit": "g"}, {"measurement": "Adventitious root number", "setting": "[11]; n=20", "value": 6.15}, {"measurement": "Entire plant fresh weight", "setting": "[11]; n=20", "value": "216 ± 23.69", "unit": "mg"}, {"measurement": "Number of leaves", "setting": "[11]; n=20", "value": "8.09±0.59"}, {"measurement": "Roots fresh weight", "setting": "[11]; n=20", "value": 68.68, "unit": "mg"}, {"measurement": "Roots fresh weight, percentage in brackets", "setting": "[11]; presumably increase vs control", "value": 46, "unit": "%"}, {"measurement": "more adventitious than control", "setting": "[11]; vs control", "value": 129, "unit": "%"}, {"measurement": "greater fresh weight than plant sprayed with only water", "setting": "[12]; foliar application of 1 mM pABA", "value": 17.54, "unit": "%"}, {"measurement": "fresh weight of Arabidopsis aerial parts, Sprayed", "setting": "[12]; sprayed with 1 mM pABA, n=51", "value": "0,62 ± 0,02"}, {"measurement": "fresh weight of Arabidopsis aerial parts, Watered", "setting": "[12]; watered with 1 mM pABA, n=51", "value": "1,08 ± 0,03"}, {"measurement": "induced fresh weight of Arabidopsis aerial parts on average", "setting": "[12]; watering with 1 mM pABA, vs water", "value": 3.84, "unit": "%"}, {"measurement": "development of embryos arrested at the globular stage", "setting": "[13]", "value": "could develop further"}]}
